The values below come from paper PMC3223156, “Designer Lipid-Like Peptides: A Class of Detergents for Studying Functional Olfactory Receptors Using Commercial Cell-Free Systems” (PLoS ONE, 2011).

Test in all cases: microscale thermophoresis, native tryptophan fluorescence, Hill fit n = […]
Common to all, as to format: binding
Common to all, as to conditions: read-out: Measured EC50
For orientation: In MST a laser heats a spot of the sample, and binding alters the fluorescence response.

One assay concerns the target T1, mOR174-4 (Mus musculus, UniProt Q920P1).
T1 construct: gene Or5d47; full length; C-terminal GSSG linker plus rho1D4 tag (TETSQVAPA); E. coli cell-free expression in Brij-35, purified in FC-14
T1 sequence (Q920P1 1-318): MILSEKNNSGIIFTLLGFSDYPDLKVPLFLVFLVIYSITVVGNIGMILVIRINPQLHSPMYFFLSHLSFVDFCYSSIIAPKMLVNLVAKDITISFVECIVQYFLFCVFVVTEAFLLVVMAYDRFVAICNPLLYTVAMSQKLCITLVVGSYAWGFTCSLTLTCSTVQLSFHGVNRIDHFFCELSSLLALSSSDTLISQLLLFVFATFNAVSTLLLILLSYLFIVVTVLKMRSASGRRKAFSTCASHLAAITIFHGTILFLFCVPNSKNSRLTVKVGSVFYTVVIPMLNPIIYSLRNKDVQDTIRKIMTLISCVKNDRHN

Another assay addresses T2, mOR174-9 (Mus musculus, UniProt Q920P2).
T2 construct: gene Or5d18; full length; C-terminal GSSG linker plus rho1D4 tag (TETSQVAPA); E. coli cell-free expression in Brij-35, purified in FC-14
T2 sequence (Q920P2 1-313): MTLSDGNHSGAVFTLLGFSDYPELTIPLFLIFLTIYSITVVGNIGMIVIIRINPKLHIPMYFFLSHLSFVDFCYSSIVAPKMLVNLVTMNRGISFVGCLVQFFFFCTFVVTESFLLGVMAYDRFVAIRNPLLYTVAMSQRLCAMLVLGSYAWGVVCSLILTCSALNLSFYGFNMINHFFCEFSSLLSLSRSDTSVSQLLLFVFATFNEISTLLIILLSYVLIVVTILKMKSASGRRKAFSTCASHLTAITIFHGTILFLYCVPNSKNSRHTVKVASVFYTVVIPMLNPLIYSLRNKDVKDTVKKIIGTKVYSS

The target in another assay is T3, mOR103-15 (Mus musculus, UniProt Q9QWU6).
T3 construct: gene Or6a2; full length; C-terminal GSSG linker plus rho1D4 tag (TETSQVAPA); E. coli cell-free expression in Brij-35, purified in FC-14
T3 sequence (Q9QWU6 1-327): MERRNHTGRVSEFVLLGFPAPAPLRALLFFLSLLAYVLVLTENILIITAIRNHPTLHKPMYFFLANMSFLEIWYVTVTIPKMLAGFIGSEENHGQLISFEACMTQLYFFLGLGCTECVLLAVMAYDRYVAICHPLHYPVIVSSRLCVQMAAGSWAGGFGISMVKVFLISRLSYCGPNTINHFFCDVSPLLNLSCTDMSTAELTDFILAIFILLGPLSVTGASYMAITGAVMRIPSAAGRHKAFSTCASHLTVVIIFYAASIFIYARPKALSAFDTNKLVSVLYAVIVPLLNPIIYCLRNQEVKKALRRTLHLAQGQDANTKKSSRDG

In general, EC50 refers to the concentration giving half of the maximal effect. Take `CCOc1cc(C=O)ccc1O` [Ethyl Vanillin]: the 50% effective concentration (EC50) at mOR174-4 came to 7 ± 2 µM; at mOR174-9, 4.9 ± 3.5 µM.

As to `CCCCCCC=O` [Heptanal], the concentration giving a half-maximal response (EC50) at mOR103-15 worked out at 2 ± 0.7 µM.
